Laboratory results as given in patent publication US20240066136A1, “MODIFIED PROTEINS AND PROTEIN DEGRADERS” (Cullgen (Shanghai), Inc., priority 2020, published 2024).

Tests used:
[1] = molecular target: CBP (Homo sapiens (Human), UniProt Q92793); test: Immunoblot of CBP protein in LNCaP cells after compound treatment; type: cell-based
Protocol: (§1) Experiments were performed to see if heterobifunctional compounds as described herein could degrade target proteins. Specific exemplary heterobifunctional compounds were characterized in LNCaP and Calu-1 cells. LNCaP cells that express P300/CBP proteins were treated with heterobifunctional compounds disclosed herein (D-2, D-13, or D-7) at indicated concentrations for 8 hours. Cells were collected, lysed and subject to immunoblotting using an antibody specific to P300 or CBP proteins. Vinculin was included as the loading control. DMSO treatment was used as the negative control. […] In addition, LNCaP cells were treated with 500 nM of D-2, or D-13 for indicated period of time. Subsequently, changes in P300 and CBP protein levels were measured by immunoblotting.

[2] = molecular target: T1, P300 (Homo sapiens (Human), UniProt Q09472); test: Immunoblot of P300 in Calu-1 cells with co-administered proteasome, neddylation or DDB1-ligand competitor; type: cell-based
T1 sequence (Q09472 whole entry): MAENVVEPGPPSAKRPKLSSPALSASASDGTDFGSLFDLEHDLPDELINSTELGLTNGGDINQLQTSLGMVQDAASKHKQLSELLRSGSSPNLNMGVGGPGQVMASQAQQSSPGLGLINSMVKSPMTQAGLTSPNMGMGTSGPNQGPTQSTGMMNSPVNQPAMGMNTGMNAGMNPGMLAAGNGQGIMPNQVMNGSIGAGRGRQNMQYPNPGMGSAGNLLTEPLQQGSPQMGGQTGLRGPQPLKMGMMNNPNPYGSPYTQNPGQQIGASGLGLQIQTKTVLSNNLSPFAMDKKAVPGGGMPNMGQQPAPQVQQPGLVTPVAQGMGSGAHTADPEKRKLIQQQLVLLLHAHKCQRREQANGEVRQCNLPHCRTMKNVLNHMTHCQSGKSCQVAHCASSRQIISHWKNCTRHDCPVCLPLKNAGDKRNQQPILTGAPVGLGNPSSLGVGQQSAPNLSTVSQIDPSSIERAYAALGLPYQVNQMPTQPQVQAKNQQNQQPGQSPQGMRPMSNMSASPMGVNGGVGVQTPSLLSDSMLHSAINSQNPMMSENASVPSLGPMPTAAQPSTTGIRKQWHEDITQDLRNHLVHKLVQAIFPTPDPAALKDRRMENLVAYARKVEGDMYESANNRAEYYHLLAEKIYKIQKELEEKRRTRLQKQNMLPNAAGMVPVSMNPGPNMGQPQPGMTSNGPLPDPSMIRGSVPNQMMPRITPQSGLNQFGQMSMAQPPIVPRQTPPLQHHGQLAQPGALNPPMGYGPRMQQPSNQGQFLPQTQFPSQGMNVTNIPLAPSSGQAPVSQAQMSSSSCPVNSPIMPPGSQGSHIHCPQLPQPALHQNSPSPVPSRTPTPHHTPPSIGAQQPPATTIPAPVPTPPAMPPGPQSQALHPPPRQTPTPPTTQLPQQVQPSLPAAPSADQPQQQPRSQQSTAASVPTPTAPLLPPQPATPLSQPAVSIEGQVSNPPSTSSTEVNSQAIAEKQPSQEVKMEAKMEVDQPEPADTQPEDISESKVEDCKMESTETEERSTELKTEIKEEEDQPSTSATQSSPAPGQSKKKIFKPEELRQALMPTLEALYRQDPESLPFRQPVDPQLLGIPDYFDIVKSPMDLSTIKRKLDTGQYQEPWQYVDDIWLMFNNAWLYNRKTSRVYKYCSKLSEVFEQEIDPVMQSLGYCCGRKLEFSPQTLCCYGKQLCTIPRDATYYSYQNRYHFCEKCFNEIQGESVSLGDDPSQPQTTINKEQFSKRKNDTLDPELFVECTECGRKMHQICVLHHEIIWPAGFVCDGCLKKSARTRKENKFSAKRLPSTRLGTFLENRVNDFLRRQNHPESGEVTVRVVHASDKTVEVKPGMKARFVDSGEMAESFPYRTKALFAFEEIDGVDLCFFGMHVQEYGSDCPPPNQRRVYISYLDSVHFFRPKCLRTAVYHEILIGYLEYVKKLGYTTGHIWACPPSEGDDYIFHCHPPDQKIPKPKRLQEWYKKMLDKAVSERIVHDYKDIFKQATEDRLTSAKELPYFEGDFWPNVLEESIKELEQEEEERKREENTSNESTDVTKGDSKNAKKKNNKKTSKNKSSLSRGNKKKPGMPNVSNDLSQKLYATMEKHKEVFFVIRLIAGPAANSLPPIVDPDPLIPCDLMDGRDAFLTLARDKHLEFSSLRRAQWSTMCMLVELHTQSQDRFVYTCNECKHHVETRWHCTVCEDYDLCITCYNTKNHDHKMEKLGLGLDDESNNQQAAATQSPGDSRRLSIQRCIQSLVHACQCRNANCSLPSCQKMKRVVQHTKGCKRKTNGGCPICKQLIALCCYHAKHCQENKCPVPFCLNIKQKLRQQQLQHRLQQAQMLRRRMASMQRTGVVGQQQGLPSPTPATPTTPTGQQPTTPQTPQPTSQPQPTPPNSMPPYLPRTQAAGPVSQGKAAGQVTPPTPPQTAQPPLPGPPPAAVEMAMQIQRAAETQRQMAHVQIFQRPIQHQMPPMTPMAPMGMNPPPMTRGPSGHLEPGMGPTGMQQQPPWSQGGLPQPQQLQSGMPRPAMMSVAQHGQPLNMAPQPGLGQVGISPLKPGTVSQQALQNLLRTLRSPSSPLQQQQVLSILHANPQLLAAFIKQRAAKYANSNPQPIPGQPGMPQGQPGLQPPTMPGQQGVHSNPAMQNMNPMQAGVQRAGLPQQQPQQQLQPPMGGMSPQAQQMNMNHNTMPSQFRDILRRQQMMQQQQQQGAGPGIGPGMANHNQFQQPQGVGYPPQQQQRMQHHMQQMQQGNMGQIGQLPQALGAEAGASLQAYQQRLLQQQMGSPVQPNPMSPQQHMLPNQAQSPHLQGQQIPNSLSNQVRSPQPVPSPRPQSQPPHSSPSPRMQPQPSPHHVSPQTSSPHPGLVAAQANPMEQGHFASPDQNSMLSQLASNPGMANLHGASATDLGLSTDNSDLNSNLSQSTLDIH
Description: The heterobifunctional compound-mediated p300 and CBP degradation was dependent on the ubiquitin-proteasome system and cullin E3 ligase. […] The binding with DDB1 also played a role in the heterobifunctional compounds ability to induce degradation of P300 and CBP proteins.

[3] = molecular target: Human DDB1 (Homo sapiens (Human), UniProt Q16531); test: Surface plasmon resonance (SPR) binding assay to immobilized His-DDB1; details: SPR, DDB1 binding moieties with linkers and/or target protein binding moiety; read-out: Binding (Kd)
Chain of Human DDB1 (Q16531 whole entry): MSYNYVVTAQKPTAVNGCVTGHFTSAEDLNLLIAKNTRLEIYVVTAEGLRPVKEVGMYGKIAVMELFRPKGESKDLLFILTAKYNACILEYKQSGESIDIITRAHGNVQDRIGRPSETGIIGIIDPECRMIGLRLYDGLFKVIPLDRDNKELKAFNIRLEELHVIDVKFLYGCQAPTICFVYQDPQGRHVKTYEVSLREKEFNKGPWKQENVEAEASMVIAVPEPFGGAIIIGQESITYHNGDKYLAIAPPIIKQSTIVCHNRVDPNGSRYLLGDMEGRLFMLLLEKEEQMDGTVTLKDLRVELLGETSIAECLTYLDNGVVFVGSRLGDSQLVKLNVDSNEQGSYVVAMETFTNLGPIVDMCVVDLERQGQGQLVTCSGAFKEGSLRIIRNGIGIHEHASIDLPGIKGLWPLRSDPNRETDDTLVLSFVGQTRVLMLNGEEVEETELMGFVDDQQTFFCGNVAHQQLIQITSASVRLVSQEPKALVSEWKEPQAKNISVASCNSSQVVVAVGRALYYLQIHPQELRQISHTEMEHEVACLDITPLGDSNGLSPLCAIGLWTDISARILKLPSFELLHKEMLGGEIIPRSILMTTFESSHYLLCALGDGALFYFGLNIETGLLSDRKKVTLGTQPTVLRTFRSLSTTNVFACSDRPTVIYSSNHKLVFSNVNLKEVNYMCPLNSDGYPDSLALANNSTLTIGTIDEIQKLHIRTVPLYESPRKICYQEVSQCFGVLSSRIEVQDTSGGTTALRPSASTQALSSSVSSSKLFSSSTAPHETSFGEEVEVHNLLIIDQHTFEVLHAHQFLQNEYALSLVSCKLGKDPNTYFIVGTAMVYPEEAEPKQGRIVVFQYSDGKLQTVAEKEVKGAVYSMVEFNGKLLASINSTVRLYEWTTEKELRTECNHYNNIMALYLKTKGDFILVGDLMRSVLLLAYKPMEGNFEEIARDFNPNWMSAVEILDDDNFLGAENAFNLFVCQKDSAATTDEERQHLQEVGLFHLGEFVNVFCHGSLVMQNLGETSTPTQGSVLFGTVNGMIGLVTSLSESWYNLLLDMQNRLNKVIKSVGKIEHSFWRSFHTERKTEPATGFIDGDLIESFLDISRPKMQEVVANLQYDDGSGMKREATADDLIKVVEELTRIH
Outline: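 Baculovirus-expressed His-DDB1 (High5 cells) amine-coupled to 11,000–13,000 RU on a CM5 chip; compounds injected in multi-cycle format without regeneration at 25° C in HBS-EP pH 7.4 (120 s association/dissociation). Double-referenced, solvent-corrected data fit to steady-state affinity model for KD.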

[4] = tested on: LNCaP cells; test: LNCaP cell viability (CellTiter-Glo); type: cell-based; details: three days
Protocol: LNCaP cells seeded in 96-well plates were treated with 10 μM GNE-781 or selected heterobifunctional compounds, following a 12-point 3-fold serial dilution. Three days after treatment, cell viability was determined using the CellTiter-Glo Kit (Promega). Cell viability was normalized to the mean values of 3 replicates of untreated cells. Dose-dependent response was analyzed following the least-squares non-linear regression method using the GraphPad Prism software.

[5] = molecular target: T1, P300; test: Immunoblot of P300 protein in LNCaP cells after compound treatment; type: cell-based
Protocol: as §1

[6] = molecular target: CDK6 (Homo sapiens (Human), UniProt Q00534); test: Immunoblot of CDK6 protein in Calu-1 cells; type: cell-based; details: 1 μM, 16 hours after administration
Chain of CDK6 (Q00534 whole entry): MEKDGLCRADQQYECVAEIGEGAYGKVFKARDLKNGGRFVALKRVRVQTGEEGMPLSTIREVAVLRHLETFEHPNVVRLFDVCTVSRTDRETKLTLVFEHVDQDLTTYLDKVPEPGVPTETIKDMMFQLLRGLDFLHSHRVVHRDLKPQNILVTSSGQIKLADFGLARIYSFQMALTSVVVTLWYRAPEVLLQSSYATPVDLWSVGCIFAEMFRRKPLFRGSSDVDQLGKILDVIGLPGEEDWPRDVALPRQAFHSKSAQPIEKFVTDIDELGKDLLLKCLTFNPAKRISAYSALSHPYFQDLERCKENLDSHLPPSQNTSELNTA
Protocol: (§2) Additional heterobifunctional compounds were designed and tested for their ability to target and degrade another two target proteins, CDK4 and CDK6. Calu-1 cells that express CDK4/6 proteins were treated with heterobifunctional compounds disclosed herein (D-44 to D-49) at indicated concentrations for 16 hours. Cells were collected, lysed and subject to immunoblotting using an antibody specific to CDK4, CDK6 or phosphorylated Rb proteins. Tubulin was included as the loading control. DMSO treatment was used as the negative control. […] In addition, Calu-1 cells were treated with 1 μM D-48 or D-49 for an indicated period of time. Subsequently, changes in CDK4 and CDK6 protein levels were measured by immunoblotting. […] These experiments highlight the ability of DDB1 binder derived heterobifunctional compounds to degrade multiple different target proteins, including but not limited to epigenetic target proteins, such as CBP and p300, and kinases, such as CDK4 and CDK6.

[7] = molecular target: CDK4 (Homo sapiens (Human), UniProt P11802); test: Immunoblot of CDK4 protein in Calu-1 cells; type: cell-based; details: 1 μM, 16 hours after administration
Chain of CDK4 (P11802 whole entry): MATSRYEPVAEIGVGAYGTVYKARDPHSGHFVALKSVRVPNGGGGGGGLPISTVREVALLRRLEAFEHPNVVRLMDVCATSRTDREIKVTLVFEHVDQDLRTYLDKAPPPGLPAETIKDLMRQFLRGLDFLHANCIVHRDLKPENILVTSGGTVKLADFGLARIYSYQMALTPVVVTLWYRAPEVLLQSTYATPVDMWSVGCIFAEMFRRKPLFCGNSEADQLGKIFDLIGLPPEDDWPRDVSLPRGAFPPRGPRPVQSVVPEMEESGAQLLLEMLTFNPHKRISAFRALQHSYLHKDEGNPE
Protocol: as §2

[8] = tested on: Calu-1; test: Cell viability assay (CellTiter-Glo); type: cell-based; details: Homo sapiens, 120 h; Calu-1, 5 days
Protocol: (§3) Calu-1, MDA-MB-453 or MIA PaCa-2 cancer cells were treated with Palbociclib or selected heterobifunctional compounds for 5 days at indicated concentrations following a 2-fold serial dilution.
(§4) A variety of cancer cell lines were treated with Palbociclib or selected heterobifunctional compounds for 5 days at indicated concentrations in FIG. 12.
(§5) Cell Culture. LNCaP (clone FGC), Calu-1, MDA-MB-468, MDA-MB-453, NCI-H358, HCC1937, BT-549, HCT116, A375, SK-MEL-28, SK-N-SH, MIA PaCa-2, HS 578T, HCC827, MIA PaCa-2, and other cells were cultured at 37° C. with 5% CO2 in DMEM or RPMI 1640 Medium supplemented with 10% fetal bovine serum. Cells were authenticated using the short tandem repeat (STR) assays. Mycoplasma test results were negative.
(§6) Cell viability assay. Cells were seeded at a density of 5000 cells per well in 96-well assay plates and treated with test compounds following a 11-point 3-fold serial dilution for 3-5 days. Three days later, cell viability was determined using the CellTiter-Glo Assay Kit according to the manufacturer's instructions. The dose-response curves were determined and IC50 values were calculated using the GraphPad Prism software following a nonlinear regression (least squares fit) method.

[9] = tested on: MDAMB-453; test: Cell viability assay (CellTiter-Glo); type: cell-based; details: Homo sapiens, MDA-MB-453, 120 h; MDAMB-453, 5 days
Protocol: as §3, §4, §5, §6

[10] = tested on: MIA PaCa-2; test: Cell viability assay (CellTiter-Glo); type: cell-based; details: Homo sapiens, 120 h; MIA PaCa-2, 5 days
Protocol: as §3, §4, §5, §6

[11] = tested on: SK-N-SH; test: Cell viability assay (CellTiter-Glo); type: cell-based; details: Homo sapiens, 120 h, 5 days
Protocol: as §4, §5, §6

[12] = tested on: HCT116; test: Cell viability assay (CellTiter-Glo); type: cell-based; details: Homo sapiens, HCT-116, 120 h; HCT116, 5 days
Protocol: as §4, §5, §6

[13] = tested on: NCI-H358; test: Cell viability assay (CellTiter-Glo); type: cell-based; details: Homo sapiens, 120 h; NCI-H358, 5 days
Protocol: as §4, §5, §6

[14] = tested on: A375; test: Cell viability assay (CellTiter-Glo); type: cell-based; details: Homo sapiens, A-375, 120 h; A375, 5 days
Protocol: as §4, §5, §6

[15] = tested on: Hs 578T; test: Cell viability assay (CellTiter-Glo); type: cell-based; details: Homo sapiens, 120 h, 5 days
Protocol: as §4, §5, §6

[16] = tested on: MDAMB-468; test: Cell viability assay (CellTiter-Glo); type: cell-based; details: Homo sapiens, MDA-MB-468, 120 h; MDAMB-468, 5 days
Protocol: as §4, §5, §6

[17] = tested on: HCC1937; test: Cell viability assay (CellTiter-Glo); type: cell-based; details: Homo sapiens, 120 h; HCC1937, 5 days
Protocol: as §4, §5, §6

[18] = tested on: BT-549; test: Cell viability assay (CellTiter-Glo); type: cell-based; details: Homo sapiens, 120 h; BT-549, 5 days
Protocol: as §4, §5, §6

[19] = tested on: HCC827; test: Cell viability assay (CellTiter-Glo); type: cell-based; details: Homo sapiens, 120 h; HCC827, 5 days
Protocol: as §4, §5, §6

[20] = tested on: SK-MEL-28; test: Cell viability assay (CellTiter-Glo); type: cell-based; details: Homo sapiens, 120 h; SK-MEL-28, 5 days
Protocol: as §4, §5, §6

[21] = tested on: Calu-1, MDA-MB-453, and MIA PaCa-2 cell lines; test: Cell viability after 5 days of treatment; type: cell-based; details: variety of different cell types
Description: FIG. 12 and Table 8 include cell viability data after treatment with heterobifunctional compound D-128, D129, or D-130. […] The compounds may be effective in multiple cell types.

[22] = indicated concentrations, 8 hours, immunoblot

| SMILES | Kd [3] [µM] | IC50 [8] [µM] | IC50 [9] [µM] | IC50 [10] [µM] | IC50 [11] [µM] | IC50 [12] [µM] | IC50 [13] [µM] | IC50 [14] [µM] | IC50 [16] [µM] | IC50 [17] [µM] | IC50 [18] [µM] | IC50 [19] [µM] | IC50 [20] [µM] | IC50 [15] [µM] | reduction of cell viability compared to palbociclib [21] | also measured |
| --- | --- | --- | --- | --- | --- | --- | --- | --- | --- | --- | --- | --- | --- | --- | --- | --- |
| CC(=O)Nc1cc(NCCCCNC(=O)CN2CCC(n3nc(N4CCCc5cc(-c6cnn(C)c6)c(C(F)F)cc54)c4c3CCN(C(C)=O)C4)CC2)ccc1C(=O)Nc1nc(C)c([N+](=O)[O-])s1 [D-2, 2-Acetamido-4-((4-(2-(4-(5-acetyl-3-(7-(difluoromethyl)-6-(1-methyl-1H-pyrazol-4-yl)-3,4-dihydroquinolin-1 (2H)-yl)-4,5,6,7-tetrahydro-1H-pyrazolo[4,3-c]pyridin-1-yl)piperidin-1-yl)acetamido)butyl)amino)-N-(4-methyl-5-nitrothiazol-2-yl)benzamide] | 20 to 100 | – | – | – | – | – | – | – | – | – | – | – | – | – | – | time at which significant degradation of CBP was detected ([1]; 500 nM, time course): 2 to 4 h; CBP protein levels [1, 22]: significantly decreased in a concentration-dependent manner; compound-induced degradation under co-administration of MG-132 or bortezomib (BTZ), or MLN4924 [2]: compromised; viability of LNCaP cells ([4]; 10 μM top, 12-point 3-fold serial dilution): dose-dependently suppressed viability of LNCaP cells; inhibitory effects on the growth of LNCaP cells compared to GNE-781 [4]: more potent inhibitory effects; time at which significant degradation of P300 was detected ([5]; 500 nM, time course): 2 to 4 h; P300 protein levels [5, 22]: significantly decreased in a concentration-dependent manner |
| CC(=O)Nc1cc(NCCOCCOCCOCCOCCOCCNC(=O)CN2CCN(c3ccc(Nc4ncc5c(C)c(C(C)=O)c(=O)n(C6CCCC6)c5n4)nc3)CC2)ccc1C(=O)Nc1nc(C)c([N+](=O)[O-])s1 [D-48, 2-Acetamido-4-((1-(4-(6-((6-acetyl-8-cyclopentyl-5-methyl-7-oxo-7,8-dihydropyrido[2,3-d]pyrimidin-2-yl)amino)pyridin-3-yl)piperazin-1-yl)-2-oxo-6,9,12,15,18-pentaoxa-3-azaicosan-20-yl)amino)-N-(4-methyl-5-nitrothiazol-2-yl)benzamide] | < 20 | – | – | – | – | – | – | – | – | – | – | – | – | – | – | degradation of CDK6 [6]: Significant degradation; degradation of CDK4 [7]: Significant degradation |
| CC(=O)c1c(C)c2cnc(Nc3ccc(N4CCN(CC(=O)NCCOCCOCCOCCOCCNc5ccc(C(=O)Nc6ncc([N+](=O)[O-])s6)c(C)c5)CC4)cn3)nc2n(C2CCCC2)c1=O [D-128, 4-((1-(4-(6-((6-Acetyl-8-cyclopentyl-5-methyl-7-oxo-7,8-dihydropyrido[2,3-d]pyrimidin-2-yl)amino)pyridin-3-yl)piperazin-1-yl)-2-oxo-6,9,12,15-tetraoxa-3-azaheptadecan-17-yl)amino)-2-methyl-N-(5-nitrothiazol-2-yl)benzamide] | – | < 2 | < 2 | < 2 | < 2 | < 2 | < 2 | < 2 | 2 to 10 | < 2 | < 2 | < 2 | < 2 | < 2 | more effective at lower doses than palbociclib | – |

Now from value to compound, other results behind:

| Kd [3] [µM] | IC50 [8] [µM] | IC50 [9] [µM] | IC50 [10] [µM] | IC50 [11] [µM] | IC50 [12] [µM] | IC50 [13] [µM] | IC50 [14] [µM] | IC50 [16] [µM] | IC50 [17] [µM] | IC50 [18] [µM] | IC50 [19] [µM] | IC50 [20] [µM] | SMILES | IC50 [15] [µM] | reduction of cell viability compared to palbociclib [21] | also measured |
| --- | --- | --- | --- | --- | --- | --- | --- | --- | --- | --- | --- | --- | --- | --- | --- | --- |
| – | < 2 | < 2 | < 2 | < 2 | < 2 | < 2 | 2 to 10 | 2 to 10 | < 2 | < 2 | < 2 | < 2 | CC(=O)c1c(C)c2cnc(Nc3ccc(N4CCN(CC(=O)NCCOCCOCCOCCOCCOCCOCCNc5ccc(C(=O)Nc6ncc([N+](=O)[O-])s6)c(C)c5)CC4)cn3)nc2n(C2CCCC2)c1=O [D-130, 4-((1-(4-(6-((6-Acetyl-8-cyclopentyl-5-methyl-7-oxo-7,8-dihydropyrido[2,3-d]pyrimidin-2-yl)amino)pyridin-3-yl)piperazin-1-yl)-2-oxo-6,9,12,15,18,21-hexaoxa-3-azatricosan-23-yl)amino)-2-methyl-N-(5-nitrothiazol-2-yl)benzamide] | < 2 | more effective at lower doses than palbociclib | – |
| – | < 2 | < 2 | < 2 | < 2 | < 2 | < 2 | < 2 | 2 to 10 | < 2 | < 2 | < 2 | < 2 | CC(=O)c1c(C)c2cnc(Nc3ccc(N4CCN(CC(=O)NCCOCCOCCOCCOCCOCCNc5ccc(C(=O)Nc6ncc([N+](=O)[O-])s6)c(C)c5)CC4)cn3)nc2n(C2CCCC2)c1=O [D-129, 4-((1-(4-(6-((6-Acetyl-8-cyclopentyl-5-methyl-7-oxo-7,8-dihydropyrido[2,3-d]pyrimidin-2-yl)amino)pyridin-3-yl)piperazin-1-yl)-2-oxo-6,9,12,15,18-pentaoxa-3-azaicosan-20-yl)amino)-2-methyl-N-(5-nitrothiazol-2-yl)benzamide] | < 2 | more effective at lower doses than palbociclib | – |
